Laboratory results reported in patent publication US20240398801A1, “TREATMENT OF LEUKEMIA BASED ON LEUKEMIA HIERARCHY IN A PATIENT” (UNIVERSITY HEALTH NETWORK, priority 2021, published 2024).

How the values were obtained:
AML engraftment = assay: Patient-derived xenograft (PDX) response of AML patient samples to fedratinib, CC-90009 or their combination; format: in vivo, NOD.SCID mice; settings: for response rate: PDX
Protocol: Using normalized malignant cell type composition data for 46 patient samples used for in vivo fedratinib or CC-90009 treatment, dimensionality reduction was performed and clustering was assigned using the leiden algorithm with a resolution of 0.7, yielding three clusters: Primitive, Mature, Intermediate/GMP. […] Samples were subsequently projected on the reference map for visualization and confirmation of cluster assignments.
Patient samples were classified into response categories by comparing the relative reduction (RR) of AML engraftment in drug-treated mice versus vehicle-treated mice, as per Galkin et al 98. RR was calculated as: ((mean % engraftment in control mice)−(mean % engraftment in drug treated mice))/(mean % engraftment in control mice). Patient samples were classified as Responders if RR in the injected femur (Right Femur, RF) was >50%, classified as Partial Responders if we observed 20 to 50% RR in the RF or >20% in the non-injected femur (Bone Marrow, BM) only, and classified as Non-Responders if there was no statistically significant difference in engraftment levels between control- and drug-treated mice, or if RR was <20% in both RF and BM.
Samples with unknown NPM1 mutation status were subsequently assigned as NPM1 mutant or NPM1 wild-type according to their cluster membership.
NOD.SCID mice were bred and housed in the University Health Network (UHN) animal care facility and all animal experiments were performed in accordance with guidelines approved by the UHN animal care committee. Ten-week-old NOD.SCID mice were irradiated (225 cGy) and pretreated with anti-CD122 antibody (200 μg per mouse), 24 hours prior to transplantation. Viably frozen mononucleated cells from AML patients were thawed, counted, and intrafemorally injected at the dose of 5 million cells per mouse. At day 21 post transplantation, treatment of either CC-90009 or Fedratinib alone with vehicle, or in combination, was initiated twice a day for 2 weeks. CC-90009 was given by intraperitoneal (IP) injections at the dose of 2.5 mg/kg and Fedratinib was dissolved in 0.5% methylcellulose and orally gavaged at 60 mg/kg. Following treatment, levels of AML engraftment were assessed to determine the efficacy of drug treatment against the disease in the mice. Cells collected from the injected right femur, non-injected bone marrow of each individual mouse were stained with human specific antibodies and evaluated by flow cytometry. Antibodies used for assessment of human AML engraftment include: CD45-APC, CD33-PE-Cy5, CD19-V450, CD34-APC-Cy7, CD15-FITC (BD), CD33-PE-Cy5, and CD14-PE (Beckman Coulter).

AML = assay: Subgroup analysis of the ALFA-0701 trial by LinClass-7 score; format: in vivo, human
human AML cells = assay: Changes in cell type composition after drug treatment (deconvolution of RNA-seq from preclinical studies); format: cell-based
Text: To identify RNA-seq datasets collected from AML samples before and after drug treatment, Applying the search terms “Acute Myeloid Leukemia” and “AML” with the “Homo sapien” and “RNA-sequencing” flags on Gene Expression Omnibus (GEO) and ArrayExpress, we identified 95 datasets posted before Jun. 17, 2021. From these, 53 were inhibitors that met the inclusion criteria of human AML samples with available RNA-sequencing data collected before and after drug treatment. Datasets with only differential expression results or Bigwig files were excluded. Datasets with less than three samples in each treatment group were also excluded, resulting in a total of 47 datasets included in the final analysis. Each dataset was processed and underwent TPM normalization and deconvolution with CIBERSORTx using a signature matrix of seven malignant cell types (LSPC-Quiescent, LSPC-Primed, LSPC-Cycle, GMP-like, ProMono-like, Mono-like, cDC-like). For quality control among cell line samples, the deconvolution correlation values from each sample across every dataset were compared and the jenks natural breaks algorithm was employed to identify cutoffs demarcating low, medium, and high correlation bins. Cell line samples classified as “low-correlation” with a correlation value below 0.437 were excluded from further analysis, leaving 42 datasets spanning 153 treatment conditions.
Relative changes in cell type abundance in each treatment condition were evaluated using Wilcoxon rank-sum tests for technical replicates or Wilcoxon signed-rank tests for biological replicates with paired treatment conditions. For dimensionality reduction with UMAP, we focused exclusively on changes in cell type abundance where the p-value was <0.05 to emphasize the key changes in cell type composition induced by each drug, resulting in 125 treatment conditions spanning 38 studies. Absolute log p-values were used to represent the magnitude of shift in cell type abundance, and cell type changes where p>0.05 were assigned a magnitude of zero. […]

primary AML samples [1] = assay: Selinexor in vivo treatment of primary AML samples, cell type abundance by RNA-seq deconvolution; parameters: species or system NSG mice; settings: primary AML samples treated in vivo
Protocol: RNA was extracted from bulk peripheral blood mononuclear cells using an RNeasy Micro Kit (Qiagen). Libraries were constructed using SMART-Seq (Clonetec). A paired-end 50-base-pair flow-cell lane Illumina HiSeq 2000 yielded an average of 240 million aligned reads per sample. To align RNA-seq reads from samples used in selinexor and fedratinib treatments, Illumina paired-end sequence data were analyzed with BWA/v0.6 alignment software with option (-s) to disable Smith-Waterman alignment. Reads were mapped onto GRCh37-lite reference genome and exon-exon junction reference whose coordinates were defined based on transcript annotations in Ensembl/v59. Reads with mapping quality <10 were discarded and duplicate reads were tagged using the Picard's MarkDuplicates program. JAGuaR 2.1 was used to incorporate reads spanning multiple exons into the alignment by introducing large alignment gaps. All transcripts of a given gene were collapsed into a single gene model such that exonic bases were the union of exonic bases that belonged to all known transcripts of the gene. Read counts and subsequently RPKM counts were obtained by counting the fraction of each read that overlapped with an exonic region for that gene. To align RNA-seq reads from functionally annotated LSC fractions, sequence data was aligned against GRCh38 and transcript sequences downloaded from Ensembl build 90 using STAR 2.5.2a. […]

primary AML samples [2] = assay: Association of LinClass-7 / LSC17 score with ex vivo drug sensitivity in primary AML drug screens; format: cell-based, human
Protocol: Ex vivo drug response in BEAT-AML samples was measured through the Area Under the dose-response Curve (AUC) metric, wherein a low AUC corresponds to sensitivity while a high AUC corresponds to resistance. AUC values were scaled and multiplied by −1 to represent sensitivity in each treatment condition. Pearson correlation was used to measure association between cell type abundance and drug sensitivities, following recommendations from a benchmarking study by Smirnov et al^97. Associations were depicted using the R package “corrplot”, and drug sensitivity volcano plots were generated using the R package “EnhancedVolcano”. For associations of cell type abundance with clinical and biological features, absolute cell type abundance was always used and pearson correlations were calculated unless otherwise specified.
To derive the LinClass-7 score, logCPM-normalized expression of 16 genes from the LSC17 assay were used as input features for LASSO regression: DNMT3B, GPR56, NGFRAP1, CD34, DPYSL3, SOCS2, MMRN1, KIAA0125, EMP1, NYNRIN, LAPTM4B, CDK6, AKR1C3, ZBTB46, CPXM1, ARHGAP22. The 17th gene, C19orf77, was excluded due to lack of expression data in the Leucegene cohort. LASSO regression was performed on negative PC2 (high in Primitive and low in Mature) with leave-one-out cross validation using the LassoCV function from scikit-learn with a path length of 0.1. Patients from TCGA and Leucegene were combined into a training set, and patients from BEAT-AML were used as a validation set to evaluate the strength of the association between LinClass-7 and PC2.

[3] = AMLs with Intermediate/GMP hierarchies
[4] = AMLs with Primitive hierarchies
[5] = added to standard chemotherapy vs chemotherapy alone, LinClass-7 low (mature) AML

## Cc1cnc(Nc2ccc(OCCN3CCCC3)cc2)nc1Nc1cccc(S(=O)(=O)NC(C)(C)C)c1 [fedratinib]
AML engraftment; [3]
  response rate: 20%
AML engraftment; AMLs with Mature hierarchies
  response rate: 88%
AML engraftment; [4]
  response rate: 46%

## Gemtuzumab Ozogamicin [GO]
AML; [5]
  event-free survival: significantly longer
  relapse-free survival: significantly longer
AML; added to standard chemotherapy, LinClass-7 high primitive AML
  survival benefit: no significant survival benefit
AML; added to standard chemotherapy, LinClass-7 low (mature) AML
  overall survival: did not extend

## CC1=C(/C=C/C(C)=C/C=C/C(C)=C/C(=O)O)C(C)(C)CCC1 [ATRA]
Human AML cells
  blast population from which differentiation is induced: predominantly from GMP-like blasts

## O=C(/C=C\n1cnc(-c2cc(C(F)(F)F)cc(C(F)(F)F)c2)n1)NNc1cnccn1 [Selinexor]
Human AML cells; primary AML samples treated in vitro
  Cycling LSPC population after treatment: depletion
Primary AML samples [1]
  Cycling LSPC population after treatment: depletion

## FC(F)(F)c1ccc(/C=C/c2nc(COc3ccc(CCCCn4ccnn4)cc3)co2)cc1 [Mubritinib]
Primary AML samples [2]; drug screens of Tyner et al and Lee et al
  blasts targeted, from correlation of LinClass-7 score with drug sensitivity: primitive blasts
Primary AML samples [2]; split by LSC17
  difference in ex vivo sensitivity between patient samples with high and low score: no significant difference
Primary AML samples [2]; split by LinClass-7
  difference in ex vivo sensitivity between patient samples with high and low score: stark differences

## CC1(C)CCC(c2ccc(Cl)cc2)=C(CN2CCN(c3ccc(C(=O)NS(=O)(=O)c4ccc(N[C@H](CCN5CCOCC5)CSc5ccccc5)c(S(=O)(=O)C(F)(F)F)c4)cc3)CC2)C1 [Navitoclax]
Primary AML samples [2]; split by LSC17
  difference in ex vivo sensitivity between patient samples with high and low score: no significant difference
Primary AML samples [2]; split by LinClass-7
  difference in ex vivo sensitivity between patient samples with high and low score: stark differences

## Cc1c(-c2ccc(-c3ccccc3F)cc2)nc2ccc(F)cc2c1C(=O)O [Brequinar]
Human AML cells; accompanying induced differentiation
  Quiescent LSPC abundance after treatment: reduction

## O=C1CCC(N2Cc3cc(CNC(=O)C(F)(F)c4ccc(Cl)cc4)ccc3C2=O)C(=O)N1 (stereo not drawn) [CC-90009]
AML engraftment; [3]
  response rate: 83%
AML engraftment; AMLs with Mature hierarchies
  response rate: 88%
AML engraftment; [4]
  response rate: 40%
AML engraftment; Primitive AMLs lacking NPM1c mutation and ETC signatures
  response among Primitive AMLs: favorable response
AML engraftment; Primitive AMLs with NPM1c mutations and electron transport chain signatures
  response among Primitive AMLs: poor response
